Source: patent US9248103B2, “Method for improving water solubility of slightly soluble substance” (Kabushiki Kaisha Sangi, priority 2012, dated 2016)
Values belong to the compound of their own block, whether it stands above or below them.

What was measured:
Assay type in all cases: physicochemical
[1] = pH of aqueous solution after 60 minutes in dissolution test using distilled water
Procedure: Moreover, as described above, since the pH of a local portion that is contacted with a poorly-soluble substance is more important than the pH of a solution as a whole, when an acidic substance is dissolved, desired effects can be obtained even though the pH is not extremely high. It is sufficient if a pH adjuster is used such that the pH of an aqueous solution of a substance with improved aqueous solubility becomes pH 8 or less. […] Herein, the pH of an aqueous solution indicates a pH value that is measured 60 minutes after the addition of a target substance to 50 mL of distilled water in an amount 2 times larger than the substance dissolved in 360 minutes. More specifically, the pH of an aqueous solution indicates a pH value that is measured according to [Dissolution test of poorly-soluble substances] in the below-mentioned Examples.
(§1) From initiation of the test, the mixed solution was stirred with a stirrer having a length of 15 mm. The rotation number of the stirrer was 120 rpm, and all of the tests were conducted in a thermostat at 37±0.5° C. Two types of test solutions, namely, distilled water and 2nd fluid for disintegration test (pH 6.8) of the Japanese Pharmacopoeia were used. As such 2nd fluid for disintegration test of the Japanese Pharmacopoeia, a solution prepared by diluting the 10-fold concentration solution of Kanto Kagaku Co., Ltd. with distilled water was used.

[2] = Dissolution test of poorly-soluble substances, distilled water
Procedure: as §1
(§2) A comparative test was carried out in the same manner as that described above, with the exception that, instead of a substance with improved aqueous solubility coated with hydroxyapatite microparticles and with a pH adjuster and/or a surfactant, a poorly-soluble substance or the like was used in the same amount as the substance with improved aqueous solubility.
(§3) […] The thus sampled solution was centrifuged at 12,000 rpm for 5 minutes. Thereafter, the substance with improved aqueous solubility and hydroxyapatite microparticles, which had not been dissolved in the solution, were removed. In the case of the comparative test, the poorly-soluble substance or the like, which had not been dissolved in the solution, was removed. An aliquot of this supernatant was immediately frozen. The frozen sample was freeze-dried, and it was then used as a sample in the measurement of the amount of the substance with improved aqueous solubility, which had been dissolved in the test solution. The dissolved poorly-soluble substance was measured mainly using a dual wavelength absorption photometer.

[3] = Dissolution test of poorly-soluble substances, 2nd fluid for disintegration test (pH 6.8) of the Japanese Pharmacopoeia
Procedure: as §1, §2, §3
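Note: Comparative example rows not the inventive coated formulation.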

SMILES: CCN1CCCC1CNC(=O)c1cc(S(N)(=O)=O)ccc1OC (centres unmarked) [6-4, Sulpiride]
pH at 60 minutes after dissolution ([1]; Sulpiride): 9.3

SMILES: NC(N)=Nc1nc(CSCCC(N)=NS(N)(=O)=O)cs1 [3-4, Famotidine]
pH at 60 minutes after dissolution ([1]; Famotidine): 8.4
Dissolved amount, elution time 1 min [2]: 1162.9 µg/mL
Dissolved amount, elution time 3 min [2]: 1502.6 µg/mL
Dissolved amount, elution time 10 min [2]: 1416.8 µg/mL
Dissolved amount, elution time 180 min [2]: 1509.8 µg/mL
Dissolved amount, elution time 360 min [2]: 1497.4 µg/mL
Dissolved amount, elution time 3 min [3]: 2286.6 µg/mL
Dissolved amount, elution time 10 min [3]: 2541.7 µg/mL
Dissolved amount, elution time 30 min [3]: 2600.9 µg/mL
Dissolved amount, elution time 60 min [3]: 2667.9 µg/mL
Dissolved amount, elution time 180 min [3]: 2509.7 µg/mL
Dissolved amount, elution time 360 min [3]: 2410.4 µg/mL

SMILES: CCCCNC(=O)NS(=O)(=O)c1ccc(C)cc1 [1-5, Tolbutamide]
pH at 60 minutes after dissolution ([1]; Tolbutamide): 4.3
Dissolved amount, elution time 1 min [2]: 48.8 µg/mL
Dissolved amount, elution time 3 min [2]: 49.3 µg/mL
Dissolved amount, elution time 10 min [2]: 51.3 µg/mL
Dissolved amount, elution time 30 min [2]: 56.6 µg/mL
Dissolved amount, elution time 60 min [2]: 50.5 µg/mL
Dissolved amount, elution time 180 min [2]: 52.9 µg/mL
Dissolved amount, elution time 360 min [2]: 68.6 µg/mL
Dissolved amount, elution time 1 min [3]: 637.3 µg/mL
Dissolved amount, elution time 3 min [3]: 1597.2 µg/mL
Dissolved amount, elution time 10 min [3]: 2041.9 µg/mL
Dissolved amount, elution time 30 min [3]: 2141.1 µg/mL
Dissolved amount, elution time 60 min [3]: 2449.4 µg/mL
Dissolved amount, elution time 180 min [3]: 2432.9 µg/mL
Dissolved amount, elution time 360 min [3]: 2429.1 µg/mL

SMILES: COc1cc(Cc2cnc(N)nc2N)cc(OC)c1OC [4-3, Trimethoprim]
pH at 60 minutes after dissolution ([1]; Trimethoprim): 8.4
Dissolved amount, elution time 1 min [2]: 354.6 µg/mL
Dissolved amount, elution time 3 min [2]: 531.0 µg/mL
Dissolved amount, elution time 10 min [2]: 685.0 µg/mL
Dissolved amount, elution time 30 min [2]: 677.9 µg/mL
Dissolved amount, elution time 60 min [2]: 671.8 µg/mL
Dissolved amount, elution time 180 min [2]: 672.0 µg/mL
Dissolved amount, elution time 360 min [2]: 656.3 µg/mL
Dissolved amount, elution time 1 min [3]: 807.8 µg/mL
Dissolved amount, elution time 3 min [3]: 1160.4 µg/mL
Dissolved amount, elution time 10 min [3]: 1291.7 µg/mL
Dissolved amount, elution time 30 min [3]: 1344.0 µg/mL
Dissolved amount, elution time 60 min [3]: 1324.8 µg/mL
Dissolved amount, elution time 180 min [3]: 1296.5 µg/mL
Dissolved amount, elution time 360 min [3]: 1321.9 µg/mL

SMILES: CC(C)(Sc1cc(C(C)(C)C)c(O)c(C(C)(C)C)c1)Sc1cc(C(C)(C)C)c(O)c(C(C)(C)C)c1 [5-2, Probucol]
Dissolved amount, elution time 1 min ([2]; Probucol): 0.7 µg/mL
Dissolved amount, elution time 3 min ([2]; Probucol): 2.7 µg/mL
Dissolved amount, elution time 10 min ([2]; Probucol): 3.7 µg/mL
Dissolved amount, elution time 30 min ([2]; Probucol): 6.1 µg/mL
Dissolved amount, elution time 60 min ([2]; Probucol): 7.6 µg/mL
Dissolved amount, elution time 180 min ([2]; Probucol): 8.3 µg/mL
Dissolved amount, elution time 360 min ([2]; Probucol): 9.7 µg/mL
Dissolved amount, elution time 1 min ([3]; Probucol): 4.7 µg/mL
Dissolved amount, elution time 3 min ([3]; Probucol): 14.9 µg/mL
Dissolved amount, elution time 10 min ([3]; Probucol): 19.9 µg/mL
Dissolved amount, elution time 30 min ([3]; Probucol): 21.2 µg/mL
Dissolved amount, elution time 60 min ([3]; Probucol): 21.8 µg/mL
Dissolved amount, elution time 180 min ([3]; Probucol): 26.8 µg/mL
Dissolved amount, elution time 360 min ([3]; Probucol): 28.0 µg/mL

Other lines, results leading:

pH at 60 minutes after dissolution ([1]; Alacepril): 2.9
Dissolved amount, elution time 3 min ([2]; Alacepril): 526.2 µg/mL
Dissolved amount, elution time 10 min ([2]; Alacepril): 805.6 µg/mL
Dissolved amount, elution time 30 min ([2]; Alacepril): 931.2 µg/mL
Dissolved amount, elution time 120 min ([2]; Alacepril): 994.9 µg/mL
Dissolved amount, elution time 360 min ([2]; Alacepril): 996.5 µg/mL
Dissolved amount, elution time 3 min ([3]; Alacepril): 2311.1 µg/mL
Dissolved amount, elution time 10 min ([3]; Alacepril): 2514.7 µg/mL
Dissolved amount, elution time 30 min ([3]; Alacepril): 2525.0 µg/mL
Dissolved amount, elution time 120 min ([3]; Alacepril): 2588.4 µg/mL
SMILES: CC(=O)SC[C@@H](C)C(=O)N1CCC[C@H]1C(=O)N[C@@H](Cc1ccccc1)C(=O)O [8-1, Alacepril]

pH at 60 minutes after dissolution ([1]; Haloperidol): 8.1
Dissolved amount, elution time 3 min ([2]; Haloperidol): 8.2 µg/mL
Dissolved amount, elution time 10 min ([2]; Haloperidol): 10.0 µg/mL
Dissolved amount, elution time 30 min ([2]; Haloperidol): 11.3 µg/mL
Dissolved amount, elution time 120 min ([2]; Haloperidol): 12.8 µg/mL
Dissolved amount, elution time 360 min ([2]; Haloperidol): 13.1 µg/mL
Dissolved amount, elution time 3 min ([3]; Haloperidol): 23.9 µg/mL
Dissolved amount, elution time 10 min ([3]; Haloperidol): 35.6 µg/mL
Dissolved amount, elution time 30 min ([3]; Haloperidol): 45.2 µg/mL
Dissolved amount, elution time 120 min ([3]; Haloperidol): 50.1 µg/mL
Dissolved amount, elution time 360 min ([3]; Haloperidol): 48.9 µg/mL
SMILES: O=C(CCCN1CCC(O)(c2ccc(Cl)cc2)CC1)c1ccc(F)cc1 [10-1, Haloperidol]

pH at 60 minutes after dissolution ([1]; Erythromycin): 9.6
Dissolved amount, elution time 3 min ([2]; Erythromycin): 635.0 µg/mL
Dissolved amount, elution time 10 min ([2]; Erythromycin): 861.6 µg/mL
Dissolved amount, elution time 30 min ([2]; Erythromycin): 944.7 µg/mL
Dissolved amount, elution time 120 min ([2]; Erythromycin): 927.7 µg/mL
Dissolved amount, elution time 360 min ([2]; Erythromycin): 846.1 µg/mL
Dissolved amount, elution time 3 min ([3]; Erythromycin): 2556.3 µg/mL
Dissolved amount, elution time 10 min ([3]; Erythromycin): 4984.2 µg/mL
Dissolved amount, elution time 30 min ([3]; Erythromycin): 5103.6 µg/mL
Dissolved amount, elution time 120 min ([3]; Erythromycin): 5904.1 µg/mL
Dissolved amount, elution time 360 min ([3]; Erythromycin): 6044.7 µg/mL
SMILES: CC[C@H]1OC(=O)[C@H](C)[C@@H](O[C@H]2C[C@@](C)(OC)[C@@H](O)[C@H](C)O2)[C@H](C)[C@@H](O[C@@H]2O[C@H](C)C[C@H](N(C)C)[C@H]2O)[C@](C)(O)C[C@@H](C)C(=O)[C@H](C)[C@@H](O)[C@]1(C)O [9-1, Erythromycin]
